Where “and” joins values, the source holds several entries; their conditions need not be identical. Equal values may be shown once.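 Dose response: 5 concentrations. Exposure: 48 h. Format: 96-well plates. Endpoint: linear interpolation; highest concentration if not reached. GI50: concentration for 50% inhibition of growth. TGI: concentration producing complete growth inhibition.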

One assay concerns MCF7 breast. Briefly: NCI anticancer screen, dose series, 48 h.
`Cc1nc(-[n+]2nc(-c3ccncc3)nn2-c2ccccc2)sc1C`: the TGI is more than 100 µM.
Compound `COc1cc2c3c(n(CCCOC(=O)C(F)(F)F)c(=O)c2cc1OC)-c1cc2c(cc1C3=O)OCO2` registered a TGI of more than 29.2 µM.
In the case of `CCOC(=O)/C=C(/C)Sc1cc(O)c2ccccc2c1O`, the GI50 is 1.54 µM and the TGI worked out at 3.59 µM.
Taken in the same sequence, the figures for `N=C(N)c1ccc2nc(-c3cc(CC(=O)N[C@@H](CC(=O)O)C(=O)O)cc(-c4cc(S(N)(=O)=O)ccc4O)c3O)[nH]c2c1` were more than 100 µM and more than 100 µM.
Regarding `CN(CCO)c1ccc(N2Cc3ccccc3OC3=C2C(=O)c2c(O)ccc(O)c2C3=O)cn1`, the GI50 is 0.0638 µM and the TGI was 0.31 µM.
In turn, `COC(=O)[C@@H](C)C[C@H](Cc1ccccc1)NC(=O)c1csc([C@@H](C[C@H](C(C)C)N(C)C(=O)[C@@H](NC(=O)[C@H]2CCCCN2C)C2CCCCC2)OC(C)=O)n1` displayed a TGI of more than 25 µM.
In the case of `COc1ccc(CCNC(=O)c2ccc(NC3=C(Cl)C(=O)N(Cc4ccccc4)C3=O)cc2)cc1OC`, the GI50 is 6.32 µM and the TGI is more than 100 µM.
Regarding `OCc1ccn2c1[C@@H](O)CC2`, the TGI was more than 100 µM.
Turning to `CCOC(=O)c1c(NC(=O)c2cccc(C(F)(F)F)c2)sc2c(CN(C)C)c(O)ccc12`, the GI50 was 2.81 µM and the TGI stood at 12.1 µM.

For another assay, the system named is UO-31 renal. Kind of assay: NCI anticancer screen, dose series, 48 h.
Take `CCn1c(=O)c2c(=O)c3c4c(oc3oc2c2ccccc21)C(=O)c1ccccc1C4=O`: the GI50 is more than 100 µM and the TGI was more than 100 µM.
Turning to `NC(=O)c1cc(S(=O)(=O)Nc2nnc(-c3ccccc3)c(-c3ccccc3)n2)c(SCc2ccccc2)cc1Cl`, the GI50 is more than 100 µM and the TGI is more than 100 µM.
Consider `Cc1cc(C)c(/C=C2\C(=O)Nc3ccc(NC(=O)CCCCCCC(=O)NO)cc32)[nH]1`, for which the GI50 was more than 100 µM and the TGI is more than 100 µM.
With `C1=C\COCc2cc(ccc2OCCN2CCCC2)Nc2nccc(n2)-c2cccc(c2)COC/1`, the GI50 was 0.722 µM and the TGI is 4.01 µM.
Regarding `COc1ccc(-c2coc3c4c(ccc3c2=O)OCO4)cc1OC`, the TGI is more than 100 µM.
On to `CC(C)(S)C(N)C(=O)O` (stereo unspecified), for which the GI50 was more than 5000 µM and the TGI is more than 5000 µM.
Turning to `O=C1c2ccccc2-c2c1c1ccccc1c(=O)n2CCCCl`, the GI50 was 6.47 µM and the TGI amounted to 69.2 µM.
`CN1C(=O)/C(=C/c2c(Cl)n(C)c3ccccc23)c2ccccc21`: the GI50 was 8 µM and 1.24 µM; the TGI was 2.75 µM.
Regarding `Cc1nc(-[n+]2nc(-c3ccncc3)nn2-c2ccccc2)sc1C`, the TGI was 50.4 µM.
Take `COc1cc2c3c(n(CCCOC(=O)C(F)(F)F)c(=O)c2cc1OC)-c1cc2c(cc1C3=O)OCO2`: the GI50 was less than 0.01 µM and the TGI is more than 100 µM.
For the compound `CCOC(=O)/C=C(/C)Sc1cc(O)c2ccccc2c1O`, the GI50 is 1.59 µM and the TGI worked out at 11.1 µM.
Regarding `N=C(N)c1ccc2nc(-c3cc(CC(=O)N[C@@H](CC(=O)O)C(=O)O)cc(-c4cc(S(N)(=O)=O)ccc4O)c3O)[nH]c2c1`, the GI50 was more than 100 µM and the TGI was more than 100 µM.
Consider `CN(CCO)c1ccc(N2Cc3ccccc3OC3=C2C(=O)c2c(O)ccc(O)c2C3=O)cn1`, for which the GI50 is 0.0971 µM and the TGI was 0.304 µM.
In the case of `COC(=O)[C@@H](C)C[C@H](Cc1ccccc1)NC(=O)c1csc([C@@H](C[C@H](C(C)C)N(C)C(=O)[C@@H](NC(=O)[C@H]2CCCCN2C)C2CCCCC2)OC(C)=O)n1`, the GI50 was 0.00684 µM and 0.0415 µM; the TGI turned out to be 7.76 µM.
With `CCOC(=O)c1c(NC(=O)c2cccc(C(F)(F)F)c2)sc2c(CN(C)C)c(O)ccc12`, the GI50 is 3.34 µM and the TGI came to 14.4 µM.

Another assay has as its system SN12C renal. Briefly: NCI anticancer screen, dose series, 48 h.
Consider `CCn1c(=O)c2c(=O)c3c4c(oc3oc2c2ccccc21)C(=O)c1ccccc1C4=O`, for which the GI50 is more than 100 µM and the TGI is more than 100 µM.
Regarding `NC(=O)c1cc(S(=O)(=O)Nc2nnc(-c3ccccc3)c(-c3ccccc3)n2)c(SCc2ccccc2)cc1Cl`, the GI50 was more than 50.8 µM and the TGI was more than 82.6 µM.
Taken in the same sequence, the figures for `Cc1cc(C)c(/C=C2\C(=O)Nc3ccc(NC(=O)CCCCCCC(=O)NO)cc32)[nH]1` were more than 20.4 µM and more than 100 µM.
For the compound `C1=C\COCc2cc(ccc2OCCN2CCCC2)Nc2nccc(n2)-c2cccc(c2)COC/1`, the GI50 is 1.19 µM and the TGI amounted to 4.92 µM.
`COc1ccc(-c2coc3c4c(ccc3c2=O)OCO4)cc1OC` registered a TGI of more than 100 µM.
Consider `CC(C)(S)C(N)C(=O)O` (stereo unspecified), for which the GI50 was more than 5000 µM and the TGI is more than 5000 µM.
For `O=C1c2ccccc2-c2c1c1ccccc1c(=O)n2CCCCl`, the GI50 is 12.1 µM and the TGI came out at 51.8 µM.
`CN1C(=O)/C(=C/c2c(Cl)n(C)c3ccccc23)c2ccccc21`: the GI50 was 1.82 µM and the TGI was 9.33 µM.
For the compound `Cc1nc(-[n+]2nc(-c3ccncc3)nn2-c2ccccc2)sc1C`, the TGI was more than 100 µM.
Turning to `COc1cc2c3c(n(CCCOC(=O)C(F)(F)F)c(=O)c2cc1OC)-c1cc2c(cc1C3=O)OCO2`, the GI50 was less than 0.01 µM and the TGI is 0.0272 µM.
Taken in the same sequence, the figures for `CCOC(=O)/C=C(/C)Sc1cc(O)c2ccccc2c1O` were 2.48 µM and 7.29 µM.
Taken in the same sequence, the figures for `N=C(N)c1ccc2nc(-c3cc(CC(=O)N[C@@H](CC(=O)O)C(=O)O)cc(-c4cc(S(N)(=O)=O)ccc4O)c3O)[nH]c2c1` were more than 100 µM and more than 100 µM.
As for `CN(CCO)c1ccc(N2Cc3ccccc3OC3=C2C(=O)c2c(O)ccc(O)c2C3=O)cn1`, the GI50 was 0.165 µM and the TGI came out at 0.355 µM.
As for `COC(=O)[C@@H](C)C[C@H](Cc1ccccc1)NC(=O)c1csc([C@@H](C[C@H](C(C)C)N(C)C(=O)[C@@H](NC(=O)[C@H]2CCCCN2C)C2CCCCC2)OC(C)=O)n1`, the GI50 is 0.0041 µM and 0.0025 µM; the TGI was 8.9 µM.
Consider `COc1ccc(CCNC(=O)c2ccc(NC3=C(Cl)C(=O)N(Cc4ccccc4)C3=O)cc2)cc1OC`, for which the GI50 was 23.9 µM and the TGI is more than 100 µM.
In turn, `OCc1ccn2c1[C@@H](O)CC2` registered a TGI of more than 100 µM.

For the origin of these results see PubChem BioAssay (NCI).
